# Test results reported in US8513238B2 (Hoffmann-La Roche Inc., priority 2010, dated 2013).
# Counter-ions that a name gives are not always drawn.
# Target: T1, human V1a receptor (Homo sapiens, UniProt P37288)
# T1 construct: expressed in transfected cells; host or cells: HEK293 cells, transiently transfected; membranes prepared
# Experiment: human V1a receptor binding (3H-Vasopressin SPA, HEK293 membranes)
# Conditions: membranes of HEK293 cells transiently transfected with human V1a receptor, Ki by Cheng-Prussoff, read-out: pKi (hV1a) (converted)
# Method: The human V1a receptor was cloned by RT-PCR from total human liver RNA. The coding sequence was subcloned in an expression vector after sequencing to confirm the identity of the amplified sequence. […] Cell membranes were prepared from HEK293 cells transiently transfected with the expression vector and grown in 20 liter fermenters with the following protocol.
# 50 g of cells are resuspended in 30 ml freshly prepared ice cold Lysis buffer (50 mM HEPES, 1 mM EDTA, 10 mM magnesium dichloride adjusted to pH=7.4+complete cocktail of protease inhibitor (Roche Diagnostics)). Homogenized with Polytron for 1 min and sonicated on ice for 2×2 minutes at 80% intensity (Vibracell sonicator). The preparation is centrifuged 20 min at 500 g at 4° C., the pellet is discarded and the supernatant centrifuged 1 hour at 43,000 g at 4° C. (19,000 rpm). The pellet is resuspended in 12.5 ml Lysis buffer+12.5 ml sucrose 20% and homogenized using a Polytron for 1-2 min. The protein concentration is determined by the Bradford method and aliquots are stored at −80° C. until use. For binding studies 60 mg Yttrium silicate SPA beads (Amersham®) are mixed with an aliquot of membrane in binding buffer (50 mM Tris, 120 mM sodium chloride, 5 mM potassium chloride, 2 mM calcium dichloride, 10 mM magnesium dichloride) for 15 minutes with mixing. 50 μl of bead/membrane mixture is then added to each well of a 96 well plate, followed by 50 μl of 4 nM 3H-Vasopressin (American Radiolabeled Chemicals). For total binding measurement 100 μl of binding buffer are added to the respective wells, for non-specific binding 100 μl of 8.4 mM cold vasopressin and for compound testing 100 μl of a serial dilution of each compound in 2% dimethyl sulfoxide. The plate is incubated 1 h at room temperature, centrifuged 1 min at 1000 g and counted on a Packard Top-Count. Non-specific binding counts are subtracted from each well and data is normalized to the maximum specific binding set at 100%. To calculate an IC50 the curve is fitted using a non-linear regression model (XLfit) and the Ki is calculated using the Cheng-Prussoff equation.
# T1 sequence (P37288 whole entry): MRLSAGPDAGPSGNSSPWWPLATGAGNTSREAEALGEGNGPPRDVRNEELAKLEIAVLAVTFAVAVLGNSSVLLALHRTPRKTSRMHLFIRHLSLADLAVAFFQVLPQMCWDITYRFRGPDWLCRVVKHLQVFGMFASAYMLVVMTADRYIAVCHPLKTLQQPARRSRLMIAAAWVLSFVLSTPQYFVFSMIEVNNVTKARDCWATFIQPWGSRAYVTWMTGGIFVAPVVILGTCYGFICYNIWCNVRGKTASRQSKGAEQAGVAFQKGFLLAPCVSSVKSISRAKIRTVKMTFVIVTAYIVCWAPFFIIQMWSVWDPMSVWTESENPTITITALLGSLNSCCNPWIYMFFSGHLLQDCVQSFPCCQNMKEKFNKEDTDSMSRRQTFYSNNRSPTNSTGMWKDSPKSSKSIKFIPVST
row,Compound,Ki
1,"Cc1nc([C@H]2CC[C@H](c3nnc4n3-c3ccc(Cl)cc3CN(CC(F)F)C4)CC2)no1 [Example 79, trans-8-Chloro-5-(2,2-difluoro-ethyl)-1-[4-(5-methyl-[1,2,4]oxadiazol-3-yl)-cyclohexyl]-5,6-dihydro-4H-2,3,5,10b-tetraaza-benzo[e]azulene]",3.39 nM
2,"Clc1ccc2c(c1)CNCc1nnc([C@H]3CC[C@H](c4nccs4)CC3)n1-2 [Example 14, trans-8-Chloro-1-(4-thiazol-2-yl-cyclohexyl)-5,6-dihydro-4H-2,3,5,10b-tetraaza-benzo[e]azulene]",28.2 nM
3,"Clc1ccc2c(c1)CNCc1nnc([C@H]3CC[C@@H](n4cccn4)CC3)n1-2 [Example 113, cis-8-Chloro-1-(4-pyrazol-1-yl-cyclohexyl)-5,6-dihydro-4H-2,3,5,10b-tetraaza-benzo[e]azulene]",794 nM
4,"Cc1coc([C@H]2CC[C@H](c3nnc4n3-c3ccc(Cl)cc3CN(C)C4)CC2)n1 [Example 6, trans-8-Chloro-5-methyl-1-[4-(4-methyl-oxazol-2-yl)-cyclohexyl]-5,6-dihydro-4H-2,3,5,10b-tetraaza-benzo[e]azulene]",3.31 nM
5,"Cc1nc([C@H]2CC[C@@H](c3nnc4n3-c3ccc(Cl)cc3CNC4)CC2)no1 [Example 83, cis-8-Chloro-1-[4-(5-methyl-[1,2,4]oxadiazol-3-yl)-cyclohexyl]-5,6-dihydro-4H-2,3,5,10b-tetraaza-benzo[e]azulene hydrochloride]",617 nM
6,"Cc1nc([C@H]2CC[C@H](c3nnc4n3-c3ccc(Cl)cc3CN(S(C)(=O)=O)C4)CC2)no1 [Example 81, trans-8-Chloro-5-methanesulfonyl-1-[4-(5-methyl-[1,2,4]oxadiazol-3-yl)-cyclohexyl]-5,6-dihydro-4H-2,3,5,10b-tetraaza-benzo[e]azulene]",4.27 nM
7,"CCc1cc([C@H]2CC[C@H](c3nnc4n3-c3ccc(Cl)cc3CN(C)C4)CC2)no1 [Example 53, trans-8-Chloro-1-[4-(5-ethyl-isoxazol-3-yl)-cyclohexyl]-5-methyl-5,6-dihydro-4H-2,3,5,10b-tetraaza-benzo[e]azulene]",1.2 nM
8,"Cc1nc([C@H]2CC[C@H](c3nnc4n3-c3ccc(Cl)cc3CN(C(=O)OC(C)(C)C)C4)CC2)sc1Cl [Example 101, trans-8-Chloro-1-[4-(5-chloro-4-methyl-thiazol-2-yl)-cyclohexyl]-4H,6H-2,3,5,10b-tetraaza-benzo[e]azulene-5-carboxylic acid tert-butyl ester]",1.29 nM
9,"Cc1onc([C@H]2CC[C@H](c3nnc4n3-c3ccc(Cl)cc3CNC4)CC2)c1Cl [Example 43, trans-8-Chloro-1-[4-(4-chloro-5-methyl-isoxazol-3-yl)-cyclohexyl]-5,6-dihydro-4H-2,3,5,10b-tetraaza-benzo[e]azulene]",5.89 nM
10,"Cc1nc([C@H]2CC[C@H](c3nnc4n3-c3ccc(Cl)cc3CN(C)C4)CC2)sc1C [Example 106, trans-8-Chloro-1-[4-(4,5-dimethyl-thiazol-2-yl)-cyclohexyl]-5-methyl-5,6-dihydro-4H-2,3,5,10b-tetraaza-benzo[e]azulene]",2.29 nM
11,"Cc1nc([C@H]2CC[C@H](c3nnc4n3-c3ccc(Cl)cc3CN(C)C4)CC2)ns1 (stereo in doubt) [Example 97, trans-8-Chloro-5-methyl-1-[4-(5-methyl-[1,2,4]thiadiazol-3-yl)-cyclohexyl]-5,6-dihydro-4H-2,3,5,10b-tetraaza-benzo[e]azulene]",2.88 nM
12,"Cc1nc([C@H]2CC[C@H](c3nnc4n3-c3ccc(Cl)cc3CN(C3CCCC3)C4)CC2)no1 [Example 78, trans-8-Chloro-5-cyclopentyl-1-[4-(5-methyl-[1,2,4]oxadiazol-3-yl)-cyclohexyl]-5,6-dihydro-4H-2,3,5,10b-tetraaza-benzo[e]azulene]",5.89 nM
13,"CN1Cc2cc(Cl)ccc2-n2c(nnc2[C@H]2CC[C@@H](n3cccn3)CC2)C1 [Example 114, cis-8-Chloro-5-methyl-1-(4-pyrazol-1-yl-cyclohexyl)-5,6-dihydro-4H-2,3,5,10b-tetraaza-benzo[e]azulene]",794 nM
14,"Cc1nc([C@H]2CC[C@H](c3nnc4n3-c3ccc(Cl)cc3CN(C(=O)OC(C)(C)C)C4)CC2)oc1Cl [Example 98, trans-8-Chloro-1-[4-(5-chloro-4-methyl-oxazol-2-yl)-cyclohexyl]-4H,6H-2,3,5,10b-tetraaza-benzo[e]azulene-5-carboxylic acid tert-butyl ester]",1.1 nM
15,"CN1Cc2cc(Cl)ccc2-n2c(nnc2[C@H]2CC[C@H](c3nccs3)CC2)C1 [Example 15, trans-8-Chloro-5-methyl-1-(4-thiazol-2-yl-cyclohexyl)-5,6-dihydro-4H-2,3,5,10b-tetraaza-benzo[e]azulene]",3.31 nM
16,"Cc1noc([C@H]2CC[C@H](c3nnc4n3-c3ccc(Cl)cc3CN(C)C4)CC2)n1 [Example 68, trans-8-Chloro-5-methyl-1-[4-(3-methyl-[1,2,4]oxadiazol-5-yl)-cyclohexyl]-5,6-dihydro-4H-2,3,5,10b-tetraaza-benzo[e]azulene]",6.61 nM
17,"Cc1nc([C@H]2CC[C@H](c3nnc4n3-c3ccc(Cl)cc3CN(C)C4)CC2)oc1C [Example 12, trans-8-Chloro-5-methyl-1-[4-(4,5-dimethyl-oxazol-2-yl)-cyclohexyl]-5,6-dihydro-4H-2,3,5,10b-tetraaza-benzo[e]azulene]",0.851 nM
18,"Cc1cc([C@H]2CC[C@H](c3nnc4n3-c3ccc(Cl)cc3CN(C(=O)OC(C)(C)C)C4)CC2)no1 [Example 22, trans-8-Chloro-1-[4-(5-methyl-isoxazol-3-yl)-cyclohexyl]-4H,6H-2,3,5,10b-tetraaza-benzo[e]azulene-5-carboxylic acid tert-butyl ester]",0.302 nM
19,"Cc1nc([C@H]2CC[C@H](c3nnc4n3-c3ccc(Cl)cc3CN(C(=O)OC(C)(C)C)C4)CC2)cs1 [Example 19, trans-8-Chloro-1-[4-(2-methyl-thiazol-4-yl)-cyclohexyl]-4H,6H-2,3,5,10b-tetraaza-benzo[e]azulene-5-carboxylic acid tert-butyl ester]",0.2 nM
20,"Cc1csc([C@H]2CC[C@H](c3nnc4n3-c3ccc(Cl)cc3CN(C)C4)CC2)n1 [Example 18, trans-8-Chloro-5-methyl-1-[4-(4-methyl-thiazol-2-yl)-cyclohexyl]-5,6-dihydro-4H-2,3,5,10b-tetraaza-benzo[e]azulene]",1.7 nM
21,"Cc1nc([C@H]2CC[C@H](c3nnc4n3-c3ccc(Cl)cc3CN(C)C4)CC2)cs1 [Example 21, trans-8-Chloro-5-methyl-1-[4-(2-methyl-thiazol-4-yl)-cyclohexyl]-5,6-dihydro-4H-2,3,5,10b-tetraaza-benzo[e]azulene]",1.7 nM
22,"Cc1nc([C@H]2CC[C@H](c3nnc4n3-c3ccc(Cl)cc3CN(C(C)C)C4)CC2)no1 [Example 76, trans-8-Chloro-5-isopropyl-1-[4-(5-methyl-[1,2,4]oxadiazol-3-yl)-cyclohexyl]-5,6-dihydro-4H-2,3,5,10b-tetraaza-benzo[e]azulene]",10 nM
23,"Cc1nc([C@H]2CC[C@@H](c3nnc4n3-c3ccc(Cl)cc3CN(C)C4)CC2)no1 [Example 84, cis-8-Chloro-5-methyl-1-[4-(5-methyl-[1,2,4]oxadiazol-3-yl)-cyclohexyl]-5,6-dihydro-4H-2,3,5,10b-tetraaza-benzo[e]azulene]",135 nM
24,"CC(C)(C)OC(=O)N1Cc2cc(Cl)ccc2-n2c(nnc2[C@H]2CC[C@H](c3noc(CO)c3CO)CC2)C1 [Example 108, trans-1-[4-(4,5-Bis-hydroxymethyl-isoxazol-3-yl)-cyclohexyl]-8-chloro-4H,6H-2,3,5,10b-tetraaza-benzo[e]azulene-5-carboxylic acid tert-butyl ester]",12.6 nM
25,"CC(C)c1nc([C@H]2CC[C@H](c3nnc4n3-c3ccc(Cl)cc3CN(C(=O)OC(C)(C)C)C4)CC2)no1 [Example 92, trans-8-Chloro-1-[4-(5-isopropyl-[1,2,4]oxadiazol-3-yl)-cyclohexyl]-4H,6H-2,3,5,10b-tetraaza-benzo[e]azulene-5-carboxylic acid tert-butyl ester]",3.09 nM
26,"CC(C)(C)OC(=O)N1Cc2cc(Cl)ccc2-n2c(nnc2[C@H]2CC[C@H](c3noc4c3CCCC4)CC2)C1 [Example 54, trans-8-Chloro-1-[4-(4,5,6,7-tetrahydro-benzo[d]isoxazol-3-yl)-cyclohexyl]-4H,6H-2,3,5,10b-tetraaza-benzo[e]azulene-5-carboxylic acid tert-butyl ester]",9.55 nM
27,"Cc1cc(C)n([C@H]2CC[C@H](c3nnc4n3-c3ccc(Cl)cc3CN(C(=O)OC(C)(C)C)C4)CC2)n1 [Example 115, trans-8-Chloro-1-[4-(3,5-dimethyl-pyrazol-1-yl)-cyclohexyl]-4H,6H-2,3,5,10b-tetraaza-benzo[e]azulene-5-carboxylic acid tert-butyl ester]",0.17 nM
